Measured values as given in US4673672A, “Substituted-[hydroxy(tetrahydro)-5-oxo-(2- and 3-furanyl or 2-thienyl)alkoxyphosphinyloxy]-alkanaminium hydroxide, inner salt oxides” (Sandoz Pharmaceuticals Corp., priority 1986, dated 1987).
Where a name gives a salt, the structure may show the parent alone.

Columns and labels:
[1] = tested on: Abelson 8.1 lymphoma; experiment: Tumor Cell Cytotoxicity test (TCC test), Abelson 8.1 lymphoma; format: cell-based; details: 5 μg, 72 hours; alkaline phosphatase assay
Protocol: (§1) As indicated above, all of the compounds of formula I are anti-tumor agents and are, therefore, useful in inhibiting the growth of various lymphomas, sarcomas, myelomas and leukemia cell lines.
(§2) In flat bottom microtiter plates (Nunc Roskilde, Denmark) were placed Abelson 8.1 lymphoma, YAC, L1210, P815, Meth A fibrosarcoma or fresh human neuroblastoma tumor cells in DMEM+10% fetal calf serum and the tumor cell-containing plates were incubated with 1,3 and 5 μg of the test compound for a period of 6 to 72 hours. The number of tumor cells present in the Abelson 8.1, YAC, L1210 and P815 assays was determined by measuring the alkaline phosphatase as follows:
(§3) The tumor cell plates were centrifuged (500×g) for ten minutes and the supernatant flicked off. Without further washing, 100 μl of buffer containing 20 μl of diethanolamine, 2 μM of MgCl2.6H2 O, 2.5 μM of p-nitrophenylphosphate and 10 mg Triton X-100 were added. The samples were incubated for 60 minutes at room temperature and the enzymatic reaction was terminated by the addition of 100 μl of 0.5N NaOH. The absorbance was then measured at 405 nm using a Titertek Multiskan apparatus.
(§4) At a concentration of 5 μg and an incubation period of 72 hours, the following results were obtained: […]

[2] = tested on: YAC; experiment: Tumor Cell Cytotoxicity test (TCC test), YAC; format: cell-based; details: 5 μg, 72 hours; alkaline phosphatase assay
Protocol: as §1, §2, §3, §4

[3] = tested on: L1210; experiment: Tumor Cell Cytotoxicity test (TCC test), L1210; format: cell-based; details: 5 μg, 72 hours; alkaline phosphatase assay
Protocol: as §1, §2, §3, §4

[4] = tested on: P815; experiment: Tumor Cell Cytotoxicity test (TCC test), P815; format: cell-based; details: 5 μg, 72 hours; alkaline phosphatase assay
Protocol: as §1, §2, §3, §4

[5] = tested on: Meth A fibrosarcoma; experiment: Tumor Cell Cytotoxicity test (TCC test), Meth A fibrosarcoma; format: cell-based; details: 5 μg, 72 hours; 3H-thymidine uptake
Protocol: as §1, §2
(§5) The number of tumor cells present in the Meth A fibrosarcoma and human neuroblastoma assays was measured by ^3 H-thymidine uptake as follows:
(§6) After 72 hours, the cells are thoroughly washed, and each well treated with ca. 0.1 μC ^3 H-thymidine. After 4-6 hours, the cells are collected using a commercial cell harvester, and the radioactivity in the […] is measured in a scintillation counter.
as §4

[6] = tested on: human neuroblastoma tumor cells; experiment: Tumor Cell Cytotoxicity test (TCC test), fresh human neuroblastoma tumor cells; format: cell-based; details: 5 μg, 72 hours; 3H-thymidine uptake
Protocol: as §1, §2, §5, §6, §4

[7] = tested on: Abelson 8.1 tumor cells; experiment: Influence on Cytotoxicity of ET-18-OCH3 test; format: cell-based; details: 5 μg test compound, 72 hours; mouse bone marrow cell macrophages preincubated with 10 μg ET-18-OCH3 for 24 hours; ET-18-OCH3 alone set at 100%
Protocol: Bone marrow cell macrophages (10^5 /well) obtained from [BALB/CX57/BL6 ]Fl mice were incubated with 10 μg of 1-octadecyl-2-methoxy-3-phosphoryl choline (ET-18-OCH3) for 24 hours in flat bottom microtiter plates (Nunc Roskilde, Denmark), after which time they are centrifuged and washed once. Abelson 8.1 tumor cells in DMEM+10% fetal calf serum and 1,3 and 5 μg of the test compound were then added to the plates. With the cytotoxicity of ET-18-OCH3 (10 μg) alone set at 100%, the inhibition or enhancement of the cytotoxic effect, as measured by an alkaline phosphatase assay, was determined and values recorded after 72 hours for 1, 3 and 5 .eta.g of the test substance. At a concentration of 5 μg, the following results were obtained: […]

[8] = tested on: Meth A sarcoma cells; experiment: Meth A sarcoma implanted in CBF1 mice, tumor growth and survival; format: in vivo; details: p.o., 50 μg, 28 days; 7.3×10^6 Meth A sarcoma cells implanted; no control animals survived
Source text: Meth A fibrosarcoma cells were induced in BALB/C mice by administering methylcholanthrene according to the procedure of Old, et al. (L. J. Old, E. A. Boyse, D. A. Clarke, and E. Carswell, Ann. N.Y. Acad. Sci., 101, 80 (1962). These tumor cells were harvested from the peritoneal cavity 10 to 12 days after administration of methylcholanthrene. Ten CBF1 mice of 10-12 week age were each implanted with 7.3×10^6 Meth A sarcoma cells to serve as control. A second group of ten CBF1 mice were each implanted with 7.3×10^6 Meth A sarcoma cells and on day one after implant each mouse was treated p.o. with 5-50 μg of the test compound per day for a total of twenty or twenty-seven days. Tumor growth and survivors were assayed on days 7, 14, 21 and 28 after tumor implantation. Under these conditions, none of the control group animals survived, whereas 5 out of 10 animals which were administered 50 μg of the compound of Example 2 for 28 days survived and 8 out of 10 animals which were administered 50 μg of the compound of Example 5 for 28 days survived.

Compound	% Inhibition Abel. [1]	% Inhibition YAC [2] [%]	% Inhibition L1210 [3] [%]	% Inhibition P815 [4] [%]	% Inhibition Meth A [5] [%]	% Inhibition neuro. [6] [%]	% Enhancement (of the cytotoxic effect of ET-18-OCH3) [7] [%]	animals survived [8]
CCCCCCCCCCCCCCCCCCC1(COP(=O)([O-])OCC[N+](C)(C)C)CCC(=O)O1 (stereo not shown) [Example 2, 2-[hydroxy(tetrahydro)-2-(octadecyl-5-oxo-2-furanyl)methoxyphosphinyloxy]-N,N,N-trimethyl-ethanaminium hydroxide, inner salt-4-oxide]	97%	71	69	84	98	59	99.5	5 out of 10
CCCCCCCCCCCCCCCCCCC1(COP(=O)([O-])OCC[N+](C)(C)C)COC(=O)C1 (stereo not shown) [Example 6, 2-[hydroxy(tetrahydro)-3-(octadecyl-5-oxo-3-furanyl)methoxyphosphinyloxy]-N,N,N-trimethyl ethanaminium hydroxide, inner salt-4-oxide]	50-70%						90	
CCCCCCCCCCCCCCCCCCC1(COP(=O)([O-])OCC[N+](C)(C)C)CCOC1 (stereo not shown) [Example 7, 2-[(3-octadecyltetrahydro-3-furanylmethoxy)-hydroxyphosphinyloxy]-N,N,N-trimethyl ethanaminium hydroxide, inner salt-4-oxide]	70-90%						90	
CCCCCCCCCCCCCCCCCCOCC1(COP(=O)([O-])OCC[N+](C)(C)C)CCCO1 (stereo not shown) [Example 5, 2-[(2-octadecyloxymethyltetrahydro-2-furanylmethoxy)-hydroxyphoshphinyloxyl]-N,N,N-trimethylethanaminium hydroxide inner salt-4-oxide]	98%	96					> 90	8 out of 10
